From US20110263478A1, “SUR1 INHIBITORS FOR THERAPY” (priority 2008, published 2011)
“Also recorded” adds a separate entry of the source.

Assays:
[1] = test system: rats with spinal cord injury (SCI); assay: Rat cervical SCI model: hemorrhage / extravasated blood in cord; assay type: in vivo; settings: 200 ng/h s.q.
Experimental: Constant infusion of a low-dose of drug was used to achieve sustained occupancy of only high-affinity receptors.
SCI injury model. This study was performed in accordance with the guidelines of the Institutional Animal Care and Use Committee. Adult female Long-Evans rats (275-350 gm) were anesthetized (Ketamine, 60 mg/kg plus Xylazine, 7.5 mg/kg, i.p.). The dura at C4-5 was exposed via a left hemilaminectomy. A hemi-cervical spinal cord contusion was created using a blunt force impactor (1.3-mm impactor head driven by a 10 gm weight dropped vertically 25 mm) (Soblo sky et al., 2001; Gensel et al., 2006). After SCI, animals were given 10 ml of glucose-free normal saline s.q. Rectal temperature was maintained at ˜37° C. using a servo-controlled warming blanket. Blood gases and serum glucose 10-15 min post-SCI were: pO2, 95±6 mm Hg; pCO2, 46±3 mm Hg; pH, 7.33±0.01; glucose 258±17 mg/dl in controls and pO2, 96±7 mm Hg; pCO2, 45±2 mm Hg; pH, 7.37±0.01; glucose 242±14 mg/dl in glibenclamide-treated animals.
Drug delivery. […] During the course of the project, slightly different formulations of drug were used, with the best results obtained using stock solutions made by placing 50 mg (or 25 mg) of drug into 10 ml DMSO, and infusion solutions made by placing 400 μl (or 800 μl) stock into 4.6 ml (or 4.2 ml) unbuffered saline (0.9% NaCl) and adjusting the pH to ˜8.5 using 0.1 N NaOH.
For in vivo gene suppression of SUR1, we used oligodeoxynucleotides that were phosphorothioated at 4 distal bonds to protect against endogenous nucleases (35). Within a few min of SCI, mini-osmotic pumps (Alzet 2002, 0.5 μl/h; Durect Corporation) with jugular vein catheters were implanted that delivered either scrambled sequence ODN (Scr-ODN) (5′-[…]-3′; SEQ ID NO:1) or antisense ODN (AS-ODN) (5′-[…]-3′; SEQ ID NO:2) (Yokoshiki et al., 1999) in PBS at a rate of 1 mg/rat/24 h.
Tissue blood. Rats were sacrificed at various times after SCI (n=5-11 rats/group), were perfused with heparinized saline to remove intravascular blood, and 5-mm segments of cord encompassing the lesion were homogenized and processed as described (Choudhri et al., 1997).

[2] = Testing of glibenclamide doses for effect on serum glucose in rats; assay type: in vivo, rat; settings: dose1-dose4 (loading 2.5-20 μg/kg i.p., infusion 75-600 ng/hr s.q.); uninjured, stroke and SCI rats
[3] = test system: recombinant MMP-2 and MMP-9; assay: Zymography of gelatinase activity of recombinant MMP; assay type: biochemical; settings: glibenclamide 10 μM; MMP-inhibitor II 300 nM
Experimental: In post-ischemic reperfusion of CNS tissues, catastrophic failure of capillary integrity has been attributed to the action of matrix metalloproteinases (MMP) (Wang et al., 2004).
Zymography of recombinant MMP-2 and MMP-9 (Sigma) was performed as described (Sumii and Lo, 2002).

[4] = test system: rats with subarachnoid hemorrhage (SAH); assay: Rat SAH model: immunohistochemistry of inferomedial cortex and posterior cerebral artery; assay type: in vivo; settings: 24 hr after SAH
Experimental: Model of SAH. All surgical procedures were approved by the Institutional Animal Care and Use Committee of the University of Maryland. […] Fasted male Wistar rats (225-275 gm; Harlan, Indianapolis, Ind.) were anesthetized (ketamine, 60 mg/kg and xylazine, 7.5 mg/kg, intraperitoneally) and allowed to ventilate air spontaneously. Temperature was maintained at 37° C. using a heating pad regulated by a rectal temperature sensor (Harvard Apparatus, Holliston, M A). The laser Doppler flowmetry (LDF) probe (MoorLab, Moore Instruments, Sussex, UK) was affixed to the skull. The right carotid sheath was exposed through a ventral midline incision, the common, external and internal carotid arteries (CCA, ECA, ICA) were dissected, and the pterygopalatine artery was ligated. Typical blood gases (i-STAT, Heska Corp, Fort Collins, Colo.), sampled from the CCA before injury, were pO2>90 mm Hg, pCO2<47 mm Hg, and glucose 150-200 mg/dl.
The model of SAH involved a single endovascular puncture of the ICA using a 4-0 filament sharpened at its tip, followed by reperfusion of the ICA (Schwartz et al. 2000). With temporary clips on the CCA and ICA, the ECA was divided proximal to the ligature, the 4-0 nylon filament was introduced through the stump of the ECA into the ICA, arterial puncture was produced at ˜19 mm under LDF monitoring, the filament was withdrawn, the ECA stump was ligated and flow was restored to the CCA/ICA. Unlike the widely used method in which a 3-0 filament is used to produce severe hemorrhage associated with high mortality, the method used here utilizing a 4-0 filament produced mild-tomoderate SAH associated with low mortality. We monitored rCBF using LDF to confirm the sharp drop after puncture and filament withdrawal, and to assure the full recovery in rCBF within 10-15 min of restoration of flow in the ICA, making ischemic injury less likely than in versions of the model in which the CCA is ligated.
Controls received the same volume of vehicle in the same way. […] The osmotic mini-pumps delivered 0.5 μl/hr, yielding infusion doses of 200 ng/hr.
Rats were euthanized 24 hr after induction of SAH. In some cases, fresh tissues were collected for immunoblot. In other cases, animals underwent perfusion fixation for immunohistochemistry or in situ hybridization.
Immunohistochemistry. Cryosections (10 μm) were post-fixed with 4% formaldehyde and immunolabeled using standard techniques. After permeabilizing (0.3% Triton X-100 for 10 min), sections were blocked (2% donkey serum for 1 hr; Sigma D-9663), then incubated with primary antibody directed against: SUR1 (1:200; SC-5789; Santa Cruz Biotechnology); NeuN (1:100; MAB377; Chemicon, CA); GFAP (1:500; CY3 conjugated; C-9205; Sigma, St. Louis, Mo.); vonWillebrand factor (1:200; F3520, Sigma); TNFα (1:100; Santa Cruz); p65 (1:100; Santa Cruz); FITC-conjugated IgG (1:200; Santa Cruz); ZO-1 (1:100; Zymed Laboratories). Fluorescent-labeled, species appropriate secondary antibodies (Molecular Probes, OR) were used for visualization. Omission of primary antibody and competition with antigenic peptides, when available, were used as negative controls. Fluorescent signals were visualized using epifluorescence microscopy (Nikon Eclipse E1000).
For quantitative immunohistochemistry, all sections were immunolabeled as a single batch, as previously described (Gerzanich et al. 2003). All images were collected using uniform parameters of magnification and exposure. Segmentation analysis was performed by computing a histogram of the pixel intensity for equal regions of interest (ROI) using IP Lab software, with the ROI confined to the 400 μm of parenchymal tissue dorsal to the pia of the inferomedial cortex ipsilateral to the SAH. For IgG, the overall pixel intensity of the ROI was determined and the background was subtracted. […]

In the case of `COc1ccc(Cl)cc1C(=O)NCCc1ccc(S(=O)(=O)NC(=O)NC2CCCCC2)cc1` [glibenclamide], the “hemorrhage in cord on inspection” value ([1]; 24 h post-SCI, vs vehicle) is reported as “visibly less hemorrhage”, the “extravasated blood in tissue homogenates” value ([1]; during the 24 h after SCI) is reported as “little increase in extravasated blood” and the “effect of doses on serum glucose” value [2] is reported as “only the highest are hypoglycemogenic, but only mildly so”. For the same compound, the “gelatinase activity of recombinant MMP” value [3] was “the same; also recorded: not affected”, the “protein (IgG) endocytosis by neurons” value [4] was “essentially absent” and the “caspase-3 activation in the PCA” value ([4]; 5 rats) was “absent in ⅘ rats and was minimal in the fifth”. For the same compound, the “ZO-1 localization in PCA endothelium” value ([4]; vs vehicle) was “significantly reduced cytoplasmic localization and restored intercellular localization”, the “caspase-3 activation in parenchymal tissues” value ([4]; vs vehicle) was “significantly reduced” and the “local inflammation (TNFα, p65 immunolabeling)” value ([4]; vs vehicle) was “significantly reduced”. The “reactive astrocytosis (GFAP immunolabeling)” value ([4]; vs vehicle) was “significantly reduced”.
